Test results taken from patent US20110129504A1, “COMPOSITION FOR CONTROLLING LIPASE CATALYZED REACTIONS” (NESTEC S.A., priority 2007, published 2011).

Experiments:
Rhizomucor miehei lipase [1] = target: T1, Rhizomucor miehei lipase (Rhizomucor miehei, UniProt P19515); experiment: Biphasic decane/buffer system: lipolytic hydrolysis of p-nitrophenylpalmitate; format: biochemical; settings: monoglyceride 1.3 E-3 M in decane, p-nitrophenylpalmitate 2E-4M, phosphate buffer pH 5.5, 3,3 E-6 M lipase; 410 nm; vs reference without surfactant
T1 sequence (P19515 95-363): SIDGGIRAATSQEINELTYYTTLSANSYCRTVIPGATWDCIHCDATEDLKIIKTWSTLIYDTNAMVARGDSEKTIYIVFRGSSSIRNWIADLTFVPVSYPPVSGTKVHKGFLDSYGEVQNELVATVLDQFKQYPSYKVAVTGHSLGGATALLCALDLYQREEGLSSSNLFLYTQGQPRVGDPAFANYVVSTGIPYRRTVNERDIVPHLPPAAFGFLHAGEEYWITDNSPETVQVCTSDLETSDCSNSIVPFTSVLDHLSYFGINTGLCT
Procedure: (§1) A biphasic system was prepared in glass test tubes with the following composition: • Upper oil phase is composed of 7 ml decane in the absence (control) or presence of (1,3 E-3M) monoglyceride and 20 ul tricaprylin or p-nitrophenypalmitate (2E-4M) • Aqueous phase is composed of 2 ml phosphate buffer, pH 5.5 containing 3,3 E-6 M Rhizomucor miehei lipase. The caprylic acid generation in the presence and absence of monoglycerides (surfactant) is monitored by GC-FID. 100 ul of the upper oil phase are taken and added to 900 ul Chloroform before direct injection into the GC. The nitrophenol generation is followed by spectroscopic analysis at 410 nm of the aqueous phase. FIGS. 7 and 8 show the amount of caprylic acid formed after the lipolytic hydrolysis of the p-nitropheylpalmitate and tricaprylin in the presence of Sn1 (hydrolysable surfactants) or Sn2 (non-hydrolysable) monoglycerides. […] This is an indication that with the used monoglyceride concentration (the concentration was constant at 1.3 E-3 M) not enough surfactant is adsorbing to the water-oil interface, since the Sn2M20:4 is too lipohilic and partitions more into the bulk oil than to the interface.

Rhizomucor miehei lipase [2] = target: T1, Rhizomucor miehei lipase; experiment: Biphasic decane/buffer system: lipolytic hydrolysis of tricaprylin; format: biochemical; settings: monoglyceride 1,3 E-3M in decane, 20 ul tricaprylin, phosphate buffer pH 5.5, 3,3 E-6 M lipase; vs no surfactant; GC-FID
Procedure: as §1

lipase = experiment: TIM gastro-intestinal model (TNO) digestion of Tricaprylin emulsion; format: biochemical
Procedure: 8 ml Tricaprylin containing 2.0 g Sn2-Monopalmitin (non-cleavable surfactant) was mixed with 200 ml phosphate buffer pH 5.5 and 20 mg/ml starch (emulsifier) using an Ultra Turrax for 2 minutes, and subsequent sonification for 10 minutes. The reference emulsion system contains the same amount of tricaprylin and starch, however, no Sn2-monopalmitin. Model digestion runs of the 2 samples were performed using a gastro-intestinal model system provided by TNO. Physiological conditions (e.g. temperature, enzyme type and load, bile salt concentration, pH) were predefined via the TIM programming system. The hydrolysis of Tricaprylin was followed by monitoring the caprylic acid release after passing the different gastro-intestinal compartments. […] The extraction of the generated fatty acids after passing the different compartments was performed by taking 100 ul of the reaction mixture, adding 900 ul chloroform together with 100 ul Chloridric acid 1M. The samples were vortexed and centrifuged at 5000 rpm for 10 min. 500 ul of the supernatant was taken and directly injected into a GC-FID. 3 samples were analysed for each reaction time at each gastro-intestinal compartment.
Additional experiments were performed where sn-2 monopalmitin was replaced Lysophosphotidilcholine (LysoPC). The effect of LysoPC on fat gastric digestion were studied.

[3] = Pendant drop interfacial tension at buffer/decane interface; format: physicochemical
Source text: The interfacial tension of pure Tricaprylin (free of any residues of polar lipids), should remain above 30 mN/m. Therefore, a more interfacial active molecule (like monocaprylin), has the capacity to exclude the triglyceride from the interface.

Row | Molecule | kinetics of nitrophenol formation from p-nitrophenylpalmitate (Rhizomucor miehei lipase [1]) | kinetics of lipolytic caprylic acid formation from tricaprylin (Rhizomucor miehei lipase [2]) | also measured
1 | CCCCCCCC(=O)OCC(O)CO (centres unmarked) [Sn1 M8] | quite similar to the observations made in the reference system | – | –
2 | CCCCCCCCCCCC(=O)OCC(O)CO (centres unmarked) [Sn1 M12] | quite similar to the observations made in the reference system | – | –
3 | CCCCCCCCCCCCCCCC(=O)OCC(O)CO (centres unmarked) [Sn1-M16] | quite similar to the observations made in the reference system | – | –
4 | CCCCCCCC(=O)OC(CO)CO [Sn2-M8] | significant reduction | reduced | –
5 | CCCCCCCCCCCC(=O)OC(CO)CO [Sn2-M12] | significant reduction | reduced | –
6 | CCCCCCCCCCCCCCCC(=O)OC(CO)CO [Sn2-M16, Sn-2 Monopalmitin] | significant reduction | reduced | Caprylic acid (C8) detected after passing through the ileum and jejunum (lipase; 8 ml Tricaprylin containing 2.0 g surfactant, phosphate buffer pH 5.5, starch emulsifier, vs reference emulsion without surfactant, GC-FID, FIG. 2): almost no caprylic acid is detected; caprylic acid content in the lumen of the stomach, duodenum, jejunum and in the efflux (lipase; compared with the ileum/jejunum result (almost no caprylic acid), FIGS. 3, 4 and 5): A similar result is obtained
7 | CCCCCCCCCCCCCCCCCCCC(=O)OC(CO)CO [monoarachidin, Sn-2 monoarachidin] | – | – | interfacial tension between the buffer and the decane solution ([3]; as a function of titrated (added) surfactant, FIG. 8): induces a decrease of the measured interfacial tension
8 | CCCCCCCC(=O)OCC(O)CO (centres unmarked) [monocaprylin] | – | – | interfacial activity compared with caprylic acid (C8) and dicaprylin (DC8) ([3]; buffer/decane interface, FIG. 9): considerably more interfacially active
9 | Lysophosphotidilcholine [LysoPC] | – | – | gastric lipolysis of triglycerides (lipase; sn-2 monopalmitin replaced by LysoPC, lumen of stomach, FIG. 3): considerable effect in decreasing gastric lipolysis
